Measurements published in ChEMBL document CHEMBL1201862, “PubChem BioAssay data set” (2004).
Activity calls are given as the source filed them. Unless noted, no cut-off for these calls is given here.

Tests used:
Keap1/Nrf2 = Keap1/Nrf2 (Homo sapiens, UniProt Q14145); assay: disruptors of Keap1 binding to Nrf2 peptide – biochemical, fluorescence polarization, cherry-picked samples, dose response (AID 588683)
[1] = biological target: T1, Neuropeptide Y receptor type 1 (Homo sapiens, UniProt P25929); type: functional;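 note: HEK293 cells with a CNG channel challenged with NPY then isoproterenol; potency as antagonist that reverses NPY suppression of cAMP signal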
T1 sequence (P25929 whole entry): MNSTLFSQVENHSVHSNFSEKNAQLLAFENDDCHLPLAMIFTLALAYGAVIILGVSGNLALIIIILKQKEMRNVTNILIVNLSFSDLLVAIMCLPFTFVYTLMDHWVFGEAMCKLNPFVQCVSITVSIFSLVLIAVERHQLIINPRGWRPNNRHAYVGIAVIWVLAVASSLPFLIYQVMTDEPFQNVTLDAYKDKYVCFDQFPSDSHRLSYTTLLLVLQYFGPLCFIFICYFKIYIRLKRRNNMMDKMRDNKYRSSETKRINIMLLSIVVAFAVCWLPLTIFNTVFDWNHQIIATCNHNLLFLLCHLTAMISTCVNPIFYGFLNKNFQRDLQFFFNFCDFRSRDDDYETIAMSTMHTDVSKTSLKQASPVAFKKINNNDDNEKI

[2] = biological target: T2, Neuropeptide Y receptor type 2 (Homo sapiens, UniProt P49146); type: functional, cell-based;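 note: HEK293 cells expressing the receptor and a CNG channel; stimulus was NPY near EC95 followed by isoproterenol to raise cAMP; antagonist potency measured as restoring cAMP signal that NPY suppresses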
T2 sequence (P49146 whole entry): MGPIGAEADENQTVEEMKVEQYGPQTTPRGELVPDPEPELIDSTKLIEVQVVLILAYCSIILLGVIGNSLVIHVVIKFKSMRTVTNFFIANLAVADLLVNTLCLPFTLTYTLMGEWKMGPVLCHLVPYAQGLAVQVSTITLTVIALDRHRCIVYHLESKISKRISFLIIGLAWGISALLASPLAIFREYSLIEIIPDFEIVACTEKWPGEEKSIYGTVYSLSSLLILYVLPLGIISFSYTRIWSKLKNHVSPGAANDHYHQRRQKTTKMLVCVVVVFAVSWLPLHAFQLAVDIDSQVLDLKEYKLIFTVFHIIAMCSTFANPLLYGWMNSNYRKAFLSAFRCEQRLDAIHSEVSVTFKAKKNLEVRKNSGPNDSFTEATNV

Phospholipase A2 = Phospholipase A2 (Homo sapiens, UniProt P04054); assay: phospholipase A2 activity inhibition – biochemical, set 2, counter-screen for ATG4B inhibitor project, dose response (AID 588586); type: functional
Sequence of Phospholipase A2 (P04054 whole entry): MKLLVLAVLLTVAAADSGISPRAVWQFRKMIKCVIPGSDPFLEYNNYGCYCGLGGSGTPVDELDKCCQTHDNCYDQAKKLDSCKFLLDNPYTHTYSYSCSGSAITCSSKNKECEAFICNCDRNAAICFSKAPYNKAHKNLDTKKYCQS

Cysteine protease ATG4B = biological target: T3, Cysteine protease ATG4B (Homo sapiens, UniProt Q9Y4P1); assay: autophagin-1 cysteine protease inhibition – biochemical, fluorescence, set 2, dose response (AID 588584); type: functional
T3 sequence (Q9Y4P1 whole entry): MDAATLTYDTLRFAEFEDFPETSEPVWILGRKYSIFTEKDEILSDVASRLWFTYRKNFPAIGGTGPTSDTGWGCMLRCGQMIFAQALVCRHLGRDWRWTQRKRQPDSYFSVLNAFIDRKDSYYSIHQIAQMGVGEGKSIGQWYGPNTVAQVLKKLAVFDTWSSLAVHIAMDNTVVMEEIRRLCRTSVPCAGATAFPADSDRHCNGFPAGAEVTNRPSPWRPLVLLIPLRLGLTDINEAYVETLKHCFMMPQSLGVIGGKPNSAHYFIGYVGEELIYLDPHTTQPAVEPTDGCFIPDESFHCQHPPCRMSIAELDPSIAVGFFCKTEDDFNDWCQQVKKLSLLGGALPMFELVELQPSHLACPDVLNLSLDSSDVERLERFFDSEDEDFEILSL

Candida albicans [3] = assay: fluconazole-resistant Candida strain growth inhibitors – CaCi-8 strain, dry powder, set 4, dose response (AID 488950); type: functional, organism-based
Candida albicans [4] = assay: single-agent antifungal toxicity in C. albicans – CaCi-2 strain, Alamar Blue, dry powder, set 2, counter-screen for antifungal drug resistance project, dose response (AID 488893); type: functional, organism-based
Candida albicans [5] = assay: single-agent toxicity toward C. albicans – CaCi-2 strain, no fluconazole, dry powder, set 4, counter-screen for reversing antifungal drug resistance, dose response (AID 488932); type: functional, organism-based
[6] = biological target: T4, Tyrosine-protein phosphatase non-receptor type 7 (Homo sapiens, UniProt P35236); type: functional
T4 sequence (P35236 whole entry): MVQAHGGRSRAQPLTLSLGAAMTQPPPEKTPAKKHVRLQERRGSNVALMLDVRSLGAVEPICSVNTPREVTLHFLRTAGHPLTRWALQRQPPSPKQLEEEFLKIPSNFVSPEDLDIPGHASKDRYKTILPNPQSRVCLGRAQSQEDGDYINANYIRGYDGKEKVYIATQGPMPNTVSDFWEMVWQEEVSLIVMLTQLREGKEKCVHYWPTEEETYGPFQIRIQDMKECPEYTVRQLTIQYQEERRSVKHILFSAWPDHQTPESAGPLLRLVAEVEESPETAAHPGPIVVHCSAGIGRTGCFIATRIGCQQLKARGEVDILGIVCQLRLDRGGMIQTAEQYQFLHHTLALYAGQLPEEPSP

[7] = biological target: Glyceraldehyde-3-phosphate dehydrogenase (Homo sapiens, UniProt P04406)
Sequence of Glyceraldehyde-3-phosphate dehydrogenase (P04406 whole entry): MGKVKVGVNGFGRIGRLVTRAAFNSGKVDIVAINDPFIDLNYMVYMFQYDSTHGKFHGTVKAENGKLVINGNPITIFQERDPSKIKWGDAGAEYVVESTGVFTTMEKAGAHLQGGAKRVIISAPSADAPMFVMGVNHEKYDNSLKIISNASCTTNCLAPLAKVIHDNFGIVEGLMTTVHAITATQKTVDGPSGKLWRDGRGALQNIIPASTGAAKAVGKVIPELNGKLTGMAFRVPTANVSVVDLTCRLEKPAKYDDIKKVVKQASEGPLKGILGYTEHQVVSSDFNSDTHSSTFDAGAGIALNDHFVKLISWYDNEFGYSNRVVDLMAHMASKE

[8] = biological target: T5, Dual specificity protein phosphatase 6 (Rattus norvegicus, UniProt Q64346)
T5 sequence (Q64346 whole entry): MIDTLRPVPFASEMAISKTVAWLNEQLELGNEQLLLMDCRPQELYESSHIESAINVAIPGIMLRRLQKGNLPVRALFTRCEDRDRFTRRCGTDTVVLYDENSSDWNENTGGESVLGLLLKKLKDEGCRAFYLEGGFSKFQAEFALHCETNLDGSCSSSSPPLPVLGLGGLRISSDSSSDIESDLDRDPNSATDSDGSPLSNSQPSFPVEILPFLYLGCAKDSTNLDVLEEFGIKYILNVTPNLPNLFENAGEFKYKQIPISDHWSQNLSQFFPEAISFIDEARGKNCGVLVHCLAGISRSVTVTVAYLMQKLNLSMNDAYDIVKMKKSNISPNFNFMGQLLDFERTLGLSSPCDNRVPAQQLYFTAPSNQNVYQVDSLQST

[9] = biological target: T5, Dual specificity protein phosphatase 6; type: functional

Sequence of Keap1/Nrf2 (Q16236 whole entry): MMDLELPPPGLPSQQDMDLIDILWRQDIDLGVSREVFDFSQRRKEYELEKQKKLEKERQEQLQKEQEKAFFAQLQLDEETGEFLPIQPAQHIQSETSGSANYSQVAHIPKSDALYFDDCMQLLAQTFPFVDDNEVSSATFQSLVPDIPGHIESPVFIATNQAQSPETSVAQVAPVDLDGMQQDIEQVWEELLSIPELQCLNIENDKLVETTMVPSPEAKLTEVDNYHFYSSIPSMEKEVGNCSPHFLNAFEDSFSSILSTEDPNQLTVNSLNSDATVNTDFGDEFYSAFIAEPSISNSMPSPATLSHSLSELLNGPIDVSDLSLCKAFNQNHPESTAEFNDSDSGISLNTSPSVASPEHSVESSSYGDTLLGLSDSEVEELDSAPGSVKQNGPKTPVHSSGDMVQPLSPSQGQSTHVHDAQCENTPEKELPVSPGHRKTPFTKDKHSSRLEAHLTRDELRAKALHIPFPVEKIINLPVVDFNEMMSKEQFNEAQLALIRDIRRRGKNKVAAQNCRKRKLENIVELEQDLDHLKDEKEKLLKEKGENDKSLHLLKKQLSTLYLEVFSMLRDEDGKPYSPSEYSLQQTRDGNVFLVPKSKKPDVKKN
Sequence of Keap1/Nrf2 (Q14145 whole entry): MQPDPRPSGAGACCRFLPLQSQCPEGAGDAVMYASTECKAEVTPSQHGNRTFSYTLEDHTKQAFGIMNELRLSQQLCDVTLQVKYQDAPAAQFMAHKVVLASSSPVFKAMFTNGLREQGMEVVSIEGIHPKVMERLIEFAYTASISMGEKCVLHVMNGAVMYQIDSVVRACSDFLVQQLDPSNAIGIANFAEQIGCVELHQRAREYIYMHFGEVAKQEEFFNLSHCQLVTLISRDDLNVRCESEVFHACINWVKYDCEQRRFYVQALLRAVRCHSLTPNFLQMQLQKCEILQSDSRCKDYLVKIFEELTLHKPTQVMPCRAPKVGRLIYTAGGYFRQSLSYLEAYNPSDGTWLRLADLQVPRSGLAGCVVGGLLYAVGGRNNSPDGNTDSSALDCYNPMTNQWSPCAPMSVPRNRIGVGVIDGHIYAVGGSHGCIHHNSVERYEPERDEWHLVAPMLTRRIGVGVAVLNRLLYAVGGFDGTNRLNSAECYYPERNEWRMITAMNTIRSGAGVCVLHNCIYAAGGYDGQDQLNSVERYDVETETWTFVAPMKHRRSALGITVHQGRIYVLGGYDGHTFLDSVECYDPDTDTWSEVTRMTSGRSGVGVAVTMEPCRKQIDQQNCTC

O=c1cc(CN2CCCc3ccccc32)nc2sccn12
AC50 (Keap1/Nrf2): 17.1 µM (active)

Cc1ccccc1C(=O)c1cccn1CC(=O)NCCN1CCN(c2cccc(C)c2C)CC1
IC50 [1]: 6.43 µM (active)
IC50 [2]: 13.2 µM (not active)
IC50 (Phospholipase A2): 17.7 µM (active)
IC50 (Cysteine protease ATG4B): 25.3 µM (inactive)

COCCC(=O)N1CCN(c2ccnc3cc(Cl)ccc23)CC1
AC50 (Candida albicans [3]): 72.5 µM (active)
AC50 (Candida albicans [4]): > 260 µM (inactive)
AC50 (Candida albicans [5]): 136 µM (active)

CCn1c(SCC(=O)O)nc2sc3c(c2c1=O)CCCC3
IC50 [6]: > 100 µM (not active)
IC50 [7]: > 100 µM (not active)
IC50 [8]: > 100 µM (inactive)
IC50 [9]: > 100 µM (inactive)
